Results: patent US7928063B2, “Analogs of human growth hormone-releasing hormone, their preparation and use” (Instytut Farmaceutyczny, priority 2001, dated 2011)
Read-outs that look alike come from different tables or passages of the source. Square brackets hold non-standard residues; d marks the D form. Peptide text beside a SMILES is read from it. * marks the point of attachment. Desaminotyrosyl = O=C(CCc1ccc(O)cc1)*; hArg = N=C(N)NCCCC[C@H](N)C(=O)O; Agb = N=C(N)NCC[C@H](N)C(=O)O; Nle = CCCC[C@H](N)C(=O)O; Orn = NCCC[C@H](N)C(=O)O

System: trypsin
Test: Trypsin digestion test (enzymatic resistance, HPLC)
Assay type: in vitro ADME
Conditions: for remaining at 0.5 h, 0.4 mg/ml / remaining at 1 h, 0.4 mg/ml: isolated enzyme trypsin
Method: The compounds prepared were also tested for enzymatic resistance in the trypsin digestion test. […] Subsequently, a trypsin solution was added (100 μl; 0.02 mg/ml; Serva, 36 U/mg). […] An aliquot (500 μl) was withdrawn and diluted with 0.5 M acetic acid (1 ml), then lyophilized. The material obtained was analyzed by HPLC, using a Knauer system with an Eurospher 100 C18 (4.6×250 mm, 5 micron) column. The following solvent systems were used: A, 0.1% TFA in water; […]

[1] = trypsin, pH 8.5, 37° C., digestion time 30 min., read-out: % Unchanged compound
[2] = trypsin, pH 8.5, 37° C., digestion time 60 min., read-out: % Unchanged compound

| Compound | Resistance to trypsin digestion (in words) (after 30 minutes) | remaining at 0.5 h, 0.4 mg/ml [1] [%] | remaining at 1 h, 0.4 mg/ml [2] [%] | remaining at 0.5 h, 0.4 mg/ml (pH 8.5) [%] | remaining at 1 h, 0.4 mg/ml (pH 8.5) [%] |
| --- | --- | --- | --- | --- | --- |
| CCCC[C@H](NC(=O)[C@@H](NC(=O)[C@H](CC(=O)O)NC(=O)[C@H](CCC(N)=O)NC(=O)[C@H](CC(C)C)NC(=O)[C@H](CC(C)C)NC(=O)[C@H](CCCN)NC(=O)[C@H](CCCCNC(=N)N)NC(=O)[C@H](C)NC(=O)[C@H](CO)NC(=O)[C@H](CC(C)C)NC(=O)[C@H](CCC(N)=O)NC(=O)[C@H](C)NC(=O)[C@H](CC(C)C)NC(=O)[C@@H](NC(=O)[C@H](CCCN)NC(=O)[C@H](CCCCNC(=N)N)NC(=O)[C@H](Cc1ccc(O)cc1)NC(=O)[C@H](CO)NC(=O)[C@H](CC(N)=O)NC(=O)[C@@H](NC(=O)[C@H](Cc1ccccc1)NC(=O)[C@@H](NC(=O)[C@H](C)NC(=O)[C@H](CC(=O)O)NC(=O)[C@H](C)NC(=O)CCc1ccc(O)cc1)[C@@H](C)CC)[C@@H](C)O)C(C)C)[C@@H](C)CC)C(=O)N[C@@H](CC(=O)O)C(=O)N[C@@H](CCCCNC(=N)N)C(N)=O [Compound 2, Dat-Ala-Asp-Ala-Ile-Phe-Thr-Asn-Ser-Tyr^10-hArg-Orn-Val-Leu-Ala-Gln-Leu-Ser-Ala-hArg^20-Orn-Leu-Leu-Gln-Asp-Ile-Nle-Asp-hArg^29-NH2] (Desaminotyrosyl-ADAIFTNSY[hArg][Orn]VLAQLSA[hArg][Orn]LLQDI[Nle]D[hArg]-NH2) | unchanged | > 99 | > 99 |  |  |
| CCCC[C@H](NC(=O)[C@@H](NC(=O)[C@H](CC(=O)O)NC(=O)[C@H](CCC(N)=O)NC(=O)[C@H](CC(C)C)NC(=O)[C@H](CC(C)C)NC(=O)[C@H](CCNC(=N)N)NC(=O)[C@H](CCNC(=N)N)NC(=O)[C@H](C)NC(=O)[C@H](CO)NC(=O)[C@H](CC(C)C)NC(=O)[C@H](CCC(N)=O)NC(=O)[C@H](C)NC(=O)[C@H](CC(C)C)NC(=O)[C@@H](NC(=O)[C@H](CCNC(=N)N)NC(=O)[C@H](CCNC(=N)N)NC(=O)[C@H](Cc1ccc(O)cc1)NC(=O)[C@H](CO)NC(=O)[C@H](CC(N)=O)NC(=O)[C@@H](NC(=O)[C@H](Cc1ccccc1)NC(=O)[C@@H](NC(=O)[C@H](C)NC(=O)[C@H](CC(=O)O)NC(=O)[C@H](C)NC(=O)CCc1ccc(O)cc1)[C@@H](C)CC)[C@@H](C)O)C(C)C)[C@@H](C)CC)C(=O)N[C@@H](CC(=O)O)C(=O)N[C@@H](CCNC(=N)N)C(N)=O [Compound 3, Dat-Ala-Asp-Ala-Ile-Phe-Thr-Asn-Ser-Tyr^10-Gab-Gab-Val-Leu-Ala-Gln-Leu-Ser-Ala-Gab-Gab-Leu-Leu-Gln-Asp-Ile-Nle-Asp-Gab-NH2] (Desaminotyrosyl-ADAIFTNSY[Agb][Agb]VLAQLSA[Agb][Agb]LLQDI[Nle]D[Agb]-NH2) |  |  |  | 86 | 72 |
| CCCC[C@H](NC(=O)[C@@H](NC(=O)[C@H](CC(=O)O)NC(=O)[C@H](CCC(N)=O)NC(=O)[C@H](CC(C)C)NC(=O)[C@H](CC(C)C)NC(=O)[C@H](CCNC(=N)N)NC(=O)[C@H](CCNC(=N)N)NC(=O)[C@H](C)NC(=O)[C@H](CO)NC(=O)[C@H](CC(C)C)NC(=O)[C@H](CCC(N)=O)NC(=O)[C@H](C)NC(=O)[C@H](CC(C)C)NC(=O)[C@@H](NC(=O)[C@H](CCNC(=N)N)NC(=O)[C@H](CCCCNC(=N)N)NC(=O)[C@H](Cc1ccc(O)cc1)NC(=O)[C@H](CO)NC(=O)[C@H](CC(N)=O)NC(=O)[C@@H](NC(=O)[C@H](Cc1ccccc1)NC(=O)[C@@H](NC(=O)[C@H](C)NC(=O)[C@H](CC(=O)O)NC(=O)[C@H](C)NC(=O)CCc1ccc(O)cc1)[C@@H](C)CC)[C@@H](C)O)C(C)C)[C@@H](C)CC)C(=O)N[C@@H](CC(=O)O)C(=O)N[C@@H](CCNC(=N)N)C(N)=O [Compound 4, Dat-Ala-Asp-Ala-Ile-Phe-Thr-Asn-Ser-Tyr^10-hArg-Gab-Val-Leu-Ala-Gln-Leu-Ser-Ala-Gab-Gab-Leu-Leu-Gln-Asp-Ile-Nle-Asp-Gab-NH2] (Desaminotyrosyl-ADAIFTNSY[hArg][Agb]VLAQLSA[Agb][Agb]LLQDI[Nle]D[Agb]-NH2) |  |  |  | 82 | 67 |
| CCCC[C@H](NC(=O)[C@@H](NC(=O)[C@H](CC(=O)O)NC(=O)[C@H](CCC(N)=O)NC(=O)[C@H](CC(C)C)NC(=O)[C@H](CC(C)C)NC(=O)[C@H](CCCCNC(=N)N)NC(=O)[C@H](CCCCNC(=N)N)NC(=O)[C@H](C)NC(=O)[C@H](CO)NC(=O)[C@H](CC(C)C)NC(=O)[C@H](CCC(N)=O)NC(=O)[C@H](C)NC(=O)[C@H](CC(C)C)NC(=O)[C@@H](NC(=O)[C@H](CCCCNC(=N)N)NC(=O)[C@H](CCNC(=N)N)NC(=O)[C@H](Cc1ccc(O)cc1)NC(=O)[C@H](CO)NC(=O)[C@H](CC(N)=O)NC(=O)[C@@H](NC(=O)[C@H](Cc1ccccc1)NC(=O)[C@@H](NC(=O)[C@H](C)NC(=O)[C@H](CC(=O)O)NC(=O)[C@H](C)NC(=O)CCc1ccc(O)cc1)[C@@H](C)CC)[C@@H](C)O)C(C)C)[C@@H](C)CC)C(=O)N[C@@H](CC(=O)O)C(=O)N[C@H](CCCNC(=N)N)C(N)=O [Compound 5, Dat-Ala-Asp-Ala-Ile-Phe-Thr-Asn-Ser-Tyr^10-Gab-hArg-Val-Leu-Ala-Gln-Leu-Ser-Ala-hArg-hArg-Leu-Leu-Gln-Asp-Ile-Nle-Asp-D-Arg-NH2] (Desaminotyrosyl-ADAIFTNSY[Agb][hArg]VLAQLSA[hArg][hArg]LLQDI[Nle]D[dR]-NH2) |  | 80 | 51 |  |  |
| CCCC[C@H](NC(=O)[C@@H](NC(=O)[C@H](CC(=O)O)NC(=O)[C@H](CCC(N)=O)NC(=O)[C@H](CC(C)C)NC(=O)[C@H](CC(C)C)NC(=O)[C@H](CCCCNC(=N)N)NC(=O)[C@H](CCCCNC(=N)N)NC(=O)[C@H](C)NC(=O)[C@H](CO)NC(=O)[C@H](CC(C)C)NC(=O)[C@H](CCC(N)=O)NC(=O)[C@H](C)NC(=O)[C@H](CC(C)C)NC(=O)[C@@H](NC(=O)[C@H](CCNC(=N)N)NC(=O)[C@H](CCCCNC(=N)N)NC(=O)[C@H](Cc1ccc(O)cc1)NC(=O)[C@H](CO)NC(=O)[C@H](CC(N)=O)NC(=O)[C@@H](NC(=O)[C@H](Cc1ccccc1)NC(=O)[C@@H](NC(=O)[C@H](C)NC(=O)[C@H](CC(=O)O)NC(=O)[C@H](C)NC(=O)CCc1ccc(O)cc1)[C@@H](C)CC)[C@@H](C)O)C(C)C)[C@@H](C)CC)C(=O)N[C@@H](CC(=O)O)C(=O)N[C@H](CCCNC(=N)N)C(N)=O [Compound 6, Dat-Ala-Asp-Ala-Ile-Phe-Thr-Asn-Ser-Tyr^10-hArg-Gab-Val-Leu-Ala-Gln-Leu-Ser-Ala-hArg-hArg-Leu-Leu-Gln-Asp-Ile-Nle-Asp-D-Arg-NH2] (Desaminotyrosyl-ADAIFTNSY[hArg][Agb]VLAQLSA[hArg][hArg]LLQDI[Nle]D[dR]-NH2) |  |  |  | 85 | 73 |
